In publication PMC12661400, “Oral bioavailable ITRI-148 degrades androgen receptor variants and overcomes antiandrogen resistance in advanced prostate cancer” (Neoplasia (New York, N.Y.), 2025):

How the values were obtained:
Type in all cases: cell-based
LNCaP = assay: MTT cell viability, 7 days; conditions: Homo sapiens, 168 h
Procedure: (§1) Cells were seeded in 96-well plates and treated with drugs the next day. After 7 days, viability was assessed using MTT assay.
(§2) (C) Western blot analysis of AR and AR-V7 in C4-2B and C4-2B/MDVR cells after 48-hour ITRI-148 treatment. […] DEGs were determined relative to DMSO or pLKO.1 vector control. […] RPL13A was used for normalization. […] AR, AR-V7, and PSA expression in the drug-treated cells were detected across treatment timepoints.

CWR22Rv1 = assay: MTT cell viability, 7 days; conditions: 168 h
Procedure: as §1, §2

VCaP = assay: MTT cell viability, 7 days; conditions: Homo sapiens, 168 h
Procedure: as §1, §2

LNCaP95 = assay: MTT cell viability, 7 days; conditions: LNCaP-95, 168 h
Procedure: as §1, §2

AR = AR degradation by immunoblotting in CRPC cells; conditions: 10 μM
Procedure: Cell lysis, Western blotting, and AR ubiquitination were performed as described in [17]. Primary antibodies: AR (Millipore 06-680), AR-V7 (RevMAb Biosciences 31-1109-00), PSA (ABclonal A4355), NKX3-1 (Cell Signaling Technology 92998), GAPDH (Cell Signaling Technology 2118) and β-Actin (Sigma-Aldrich A5441).
Fig. 1 ITRI-148 induces degradation of both AR and AR-V7 proteins in CRPC cells. […] (B) Expression of Flag-tagged AR-V7 in 293T cells following ITRI-148 treatment. Cells transiently expressing Flag-AR-V7 were pretreated with 50 μg/mL cycloheximide for 1 hour, then exposed to ITRI-148 at the indicated concentrations for 8 hours. AR-V7 expression was detected using an anti-Flag antibody. (C) Representative immunoblots showing AR protein levels in VCaP and CWR22Rv1 cells after 48 hours of ITRI-148 treatment. An N-terminal AR antibody was used to detect both full-length AR and LBD-truncated variants (AR-V(ΔLBD)) in CWR22Rv1 cells, while AR-V7 was detected using an AR-V7-specific antibody. DC₅₀ values were calculated from normalized band intensities, and Dₘₐₓ represents the maximal degradation achieved at 10 μM ITRI-148. (D) Immunofluorescence staining of AR after 24 or 48 hours of ITRI-148 treatment, detected using an N-terminal AR antibody. […] (F) Western blot analysis of ectopically expressed wild-type (WT) and mutant Myc-tagged AR in DU145 cells following 24 hours of treatment with 10 μM ITRI-148. Quantified AR levels are as indicated. TEXT PRINTED IN THE PICTURE: (C) ITRI-148: DC50 (μM) AR CWR22Rv1: 1.23 ± 1.86; DC50 (μM) AR VCaP: 0.05 ± 0.03; DC50 (μM) AR-V7 CWR22Rv1: 1.20 ± 0.92; DC50 (μM) AR-V7 VCaP: 0.02 ± 0.02; Dmax (%) AR CWR22Rv1: 65.02 ± 19.91; Dmax (%) AR VCaP: 80.49 ± 5.61; Dmax (%) AR-V7 CWR22Rv1: 72.10 ± 3.15; Dmax (%) AR-V7 VCaP: 91.36 ± 2.05

IC50 (LNCaP) [µM]	IC50 (VCaP) [µM]	IC50 (LNCaP95) [µM]	SMILES	IC50 (CWR22Rv1) [µM]	degradation of the AR proteins (western blot) (AR)
0.74	> 10	> 10	N#Cc1ccc(O[C@H]2CC[C@H](NC(=O)c3ccc(N4CCC(CN5CCN(c6cc7c(cc6F)C(=O)N(C6CCC(=O)NC6=O)C7=O)CC5)CC4)nn3)CC2)cc1Cl (some centres unmarked) [ARV-110, reference compound]	> 10	
			CN1C(=O)CCC(N2C(=O)c3cccc(NCC(=O)N4CCC(N5CCC(C#Cc6ccc(C7CCN(C8=Nn9c(nnc9C(F)(F)F)CC8)CC7)cc6)CC5)CC4)c3C2=O)C1=O (centres unmarked) [inactive analog of ITRI-148]		failed to degrade the AR proteins
